Several values for one entry are separate records, joined by “and”; a condition that tells them apart may be missing. Equal entries are not always repeated. Marks after values point to notes of the source that are not given here.
Tests used:
human A3AR = human A3AR (Homo sapiens (Human), UniProt P0DMS8); assay: [35S]GTPγS binding assay, membranes of CHO cells expressing human A3AR; format: biochemical; conditions: stimulation measured by [35S]GTPγS binding assay
human A1 receptors = human A1 receptors (Homo sapiens (Human), UniProt P30542); assay: Binding assay at human A1 receptors (Example 2); conditions: CHO cells expressing human A1AR; radioligand [3H]CCPA or [3H]R-PIA; n = 3-5; read-out: Affinity (Ki, nM) A1
Sequence of human A1 receptors (P30542 whole entry): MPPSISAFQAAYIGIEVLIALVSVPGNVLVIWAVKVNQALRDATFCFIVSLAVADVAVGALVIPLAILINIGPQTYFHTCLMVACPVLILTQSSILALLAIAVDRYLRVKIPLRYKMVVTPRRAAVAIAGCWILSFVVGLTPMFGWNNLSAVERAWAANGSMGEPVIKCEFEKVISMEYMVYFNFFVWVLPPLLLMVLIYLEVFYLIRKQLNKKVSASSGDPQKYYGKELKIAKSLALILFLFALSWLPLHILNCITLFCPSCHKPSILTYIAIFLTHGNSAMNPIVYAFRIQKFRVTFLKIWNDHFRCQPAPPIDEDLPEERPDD

human A2A receptors = human A2A receptors (Homo sapiens (Human), UniProt P29274); assay: Binding assay at human A2A receptors (Example 2); conditions: HEK cells expressing human A2AAR; radioligand [3H]CGS21680; n = 3-5; read-out: Affinity (Ki, nM) A2A
Sequence of human A2A receptors (P29274 whole entry): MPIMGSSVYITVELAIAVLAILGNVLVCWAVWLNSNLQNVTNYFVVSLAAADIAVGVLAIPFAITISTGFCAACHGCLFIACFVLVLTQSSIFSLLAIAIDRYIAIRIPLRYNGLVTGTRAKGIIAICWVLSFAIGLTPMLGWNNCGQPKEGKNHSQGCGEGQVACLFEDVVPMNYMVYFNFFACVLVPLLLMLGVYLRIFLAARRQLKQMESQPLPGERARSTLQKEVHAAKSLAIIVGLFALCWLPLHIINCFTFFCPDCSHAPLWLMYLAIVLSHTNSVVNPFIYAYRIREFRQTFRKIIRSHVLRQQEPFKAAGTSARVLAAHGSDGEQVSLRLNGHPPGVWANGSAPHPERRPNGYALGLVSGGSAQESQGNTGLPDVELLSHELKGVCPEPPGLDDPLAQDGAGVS

hA1AR [1] = target: T1, hA1AR (Homo sapiens (Human), UniProt P30542); assay: Radioligand membrane binding at hA1AR (Example 6); conditions: CHO cells expressing hA1AR; [3H]R-PIA; n = 3-5; read-out: Affinity Ki, nM A1
T1 sequence (P30542 whole entry): as the sequence (P30542 whole entry) above
Method: (§1) In addition, 800 μg/mL Geneticin and 500 μg/mL hygromycin were added to the A2A media and to the A1 and A3 media, respectively. […] The concentration of protein was determined using a BCA Protein Assay Kit from Pierce Biotechnology (Rockford, Ill.).
(§2) Radioligand binding assays at A1, A2A, and A3ARs were performed according to the procedures described previously.
(§3) All of the filters were washed 3 times with Tris-HCl, pH 7.5. […] Filters for A3AR binding were counted using a PerkinElmer Cobra II γ-counter.
(§4) Binding and functional parameters were calculated using Prism 5.0 software (GraphPAD, San Diego, Calif., USA). IC50 values obtained from competition curves were converted to Ki values using the Cheng-Prusoff equation. Data were expressed as mean±standard error.

hA2AAR = hA2AAR (Homo sapiens (Human), UniProt P29274); assay: Radioligand membrane binding at hA2AAR (Example 6); conditions: HEK293 cells expressing hA2AAR; [3H]CGS21680; n = 3-5; read-out: Affinity Ki, nM A2A
Sequence of hA2AAR (P29274 whole entry): as the sequence (P29274 whole entry) above
Method: as §1, §2, §3, §4

hA3AR = hA3AR (Homo sapiens (Human), UniProt P0DMS8); assay: Radioligand membrane binding at hA3AR (Example 6); conditions: CHO cells expressing hA3AR; [125I]I-AB-MECA; n = 3-5; read-out: Affinity Ki, nM A3
Sequence of hA3AR (P0DMS8 whole entry): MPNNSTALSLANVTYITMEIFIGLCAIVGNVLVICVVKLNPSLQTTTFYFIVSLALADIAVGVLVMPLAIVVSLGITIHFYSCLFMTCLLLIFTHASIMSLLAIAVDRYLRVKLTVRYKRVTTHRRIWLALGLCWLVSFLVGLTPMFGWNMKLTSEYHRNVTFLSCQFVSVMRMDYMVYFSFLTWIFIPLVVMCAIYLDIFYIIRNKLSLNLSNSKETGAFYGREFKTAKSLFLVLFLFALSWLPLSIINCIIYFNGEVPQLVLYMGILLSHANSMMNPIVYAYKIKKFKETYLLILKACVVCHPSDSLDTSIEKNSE

hA1AR [2] = target: T1, hA1AR; assay: A1AR functional assay, inhibition of forskolin-stimulated cyclic AMP production in AR-transfected CHO cells; format: cell-based; conditions: for inhibition at 10 µM: CHO, read-out: % Inhibition, cyclic AMP A1; for % Inhibition, cyclic AMP A1: maximal efficacy at 10 μM, in comparison to effect (100%) of full agonist CPA at 10 μM, n = 3-5
[3] = tested on: seizures induced by 6 Hz corneal stimulation in mice; assay: 6 Hz minimal clonic seizure test; format: in vivo; conditions: mice, i.p., measured at 1 h post injection
Method: (§5) For the MES and 6 Hz tests, a drop of anesthetic/electrolyte solution (0.5% tetracaine hydrochloride in 0.9% saline) was applied to the eyes of each animal prior to placement of the corneal electrodes. The electrical stimulus in the MES test was 50 mA, 60 Hz, for mice. Abolition of the hindleg tonic extensor component of the seizure was used as the endpoint.
The ability of the test substance to prevent seizures induced by 6 Hz corneal stimulation (32 mA, 3 sec duration) in mice was evaluated at a convulsive current that evokes a seizure in 97% of the population tested (CC97). Six Hz seizures are characterized by a minimal clonic phase that is followed by stereotyped, automatistic behaviors described originally as being similar to the aura of human patients with partial seizures. Toman, J. E. et al., Tex. Rep.
Animals not displaying this behavior were considered protected.

MES seizures in mice = assay: Maximal electroshock (MES) seizure test; format: in vivo; conditions: i.p., 1 mg/kg
Method: The electrical tests used were the maximal electroshock (MES) seizure test, the 6 Hz minimal clonic seizure test, and the corneal kindled mouse test. The chemical test was the s.c. metrazol seizure tests. Time of peak effect (TPE) is deduced from data generated in initial qualitative test procedures. Five groups of 4 animals each are administered the test compound, and each group is tested at one of five different time intervals: ¼, ½, 1, 2 and 4 h. The time point at which the compound produces the most activity/toxicity was chosen as TPE.
as §5

[4] = tested on: s.c. metrazol seizures in mice; assay: s.c. metrazol (scMET) seizure test; format: in vivo; conditions: i.p., 1 mg/kg
From the text: In vivo anticonvulsant activity was established by both electrical and chemoconvulsant seizure tests which have been described previously. White, H. S., et al., Ital. J. Neurol. […] White, H. S. et al., Antiepileptic Drugs ([…].; Meldrum, B. S. ed), 1995, pp 99-110, Raven Press, New York.; and Smith, M., et al., Neurotherapeutics 2007, 4, 12-17. The electrical tests used were the maximal electroshock (MES) seizure test, the 6 Hz minimal clonic seizure test, and the corneal kindled mouse test. The chemical test was the s.c. metrazol seizure tests. Time of peak effect (TPE) is deduced from data generated in initial qualitative test procedures. […] The time point at which the compound produces the most activity/toxicity was chosen as TPE.

mice = assay: Minimal behavioral toxicity test, rotorod procedure; conditions: i.p., measured at 1 h post injection

Sequence of human A3AR (P0DMS8 whole entry): as above

Ki (hA1AR [1]) | Ki (hA2AAR) | Ki (hA3AR) | inhibition at 10 µM (hA1AR [2]) | Compound | other results
– | – | – | – | O[C@@H]1[C@H](O)[C@@H]2C[C@@H]2[C@H]1n1cnc2c(N[C@@H]3C[C@H]3c3ccccc3)nc(Cl)nc21 (relative stereo) [Compound 13b, (1′R,2′R,3′S,4′R,5′S)-4′-[2-Chloro-6-(trans-2-phenylcyclopropylamino)purine]-2′,3′-O-dihydroxybicyclo-[3.1.0]hexane] | % Efficacy A3 (human A3AR): 9.7 ± 4.1%
– | – | – | – | O[C@@H]1[C@H](O)[C@@H]2C[C@@H]2[C@H]1n1cnc2c(NCc3cccc(Cl)c3)nc(Cl)nc21 [Compound 8b, (1′R,2′R,3′S,4′R,5′S)-4′-[2-Chloro-6-(3-chlorobenzylamino)purine]-2′,3′-O-dihydroxybicyclo-[3.1.0]hexane] | Ki (human A1 receptors): 3070 ± 1500 nM; Ki (human A2A receptors): 4510 ± 910 nM; % Efficacy A3 (human A3AR): 2.9 ± 3.7%
– | – | – | – | O[C@@H]1[C@H](O)[C@@H]2C[C@@H]2[C@H]1n1cnc2c(NCc3cccc(Br)c3)nc(Cl)nc21 [Compound 9b, (1′R,2′R,3′S,4′R,5′S)-4′-[2-Chloro-6-(3-bromobenzylamino)purine]-2′,3′-O-dihydroxybicyclo-[3.1.0]hexane] | Ki (human A1 receptors): 1760 ± 1010 nM
– | – | – | – | COc1ccc(OC)c(CNc2nc(Cl)nc3c2ncn3[C@H]2[C@H](O)[C@H](O)[C@@H]3C[C@@H]32)c1 [Compound 11b, (1′R,2′R,3′S,4′R,5′S)-4′-[2-Chloro-6-(2,5-dimethoxybenzylamino)purine]-2′,3′-O-dihydroxybicyclo-[3.1.0]hexane] | Ki (human A2A receptors): 2620 ± 730 nM; % Efficacy A3 (human A3AR): 4.6 ± 3.8%
– | – | – | – | COc1ccc(O)c(CNc2nc(Cl)nc3c2ncn3[C@H]2[C@H](O)[C@H](O)[C@@H]3C[C@@H]32)c1 [Compound 12b, (1′R,2′R,3′S,4′R,5′S)-4′-[2-Chloro-6-(2-hydroxy-5-methoxybenzylamino)purine]-2′,3′-O-dihydroxybicyclo-[3.1.0]hexane] | Ki (human A1 receptors): 1110 ± 300 nM; Ki (human A2A receptors): 6870 ± 1440 nM; % Efficacy A3 (human A3AR): 0.4 ± 1.3%
76 ± 8 nM | 1570 ± 180 nM | 780 ± 80 nM | 33.8 ± 2.3% | CC(C)[C@@H](Nc1nc(Cl)nc2c1ncn2[C@H]1[C@H](O)[C@H](O)[C@@H]2C[C@@H]21)C1CC1 [Compound 214, (1R,2R,3S,4R,5S)-4-(2-Chloro-6-((R)-1-cyclopropyl-2-methyl-propylamino)-9H-purin-9-yl)bicyclo[3.1.0]hexane-2,3-diol] | –
150 ± 50 nM | 3650 ± 370 nM | 1720 ± 140 nM | 20.8 ± 6.1% | CC(C)[C@H](Nc1nc(Cl)nc2c1ncn2[C@H]1[C@H](O)[C@H](O)[C@@H]2C[C@@H]21)C1CC1 [Compound 215, (1R,2R,3S,4R,5S)-4-(2-Chloro-6-((S)-1-cyclopropyl-2-methyl-propylamino)-9H-purin-9-yl)bicyclo[3.1.0]hexane-2,3-diol] | –
490 ± 90 nM | 4840 ± 400 nM | 1760 ± 210 nM | 18.4 ± 2.1% | O[C@@H]1[C@H](O)[C@@H]2C[C@@H]2[C@H]1n1cnc2c(N[C@H](CC3CC3)C3CC3)nc(Cl)nc21 [Compound 218, (1R,2R,3S,4R,5S)-4-(2-Chloro-6-((R)-1,2-dicyclopropylethylamino)-9H-purin-9-yl)bicyclo[3.1.0]hexane-2,3-diol] | –
170 ± 20 nM | 2550 ± 170 nM | 550 ± 50 nM | 24 ± 5.2% | O[C@@H]1[C@H](O)[C@@H]2C[C@@H]2[C@H]1n1cnc2c(N[C@@H](CC3CC3)C3CC3)nc(Cl)nc21 [Compound 219, (1R,2R,3S,4R,5S)-4-(2-Chloro-6-((S)-1,2-dicyclopropylethylamino)-9H-purin-9-yl)bicyclo[3.1.0]hexane-2,3-diol] | –
– | – | – | – | OC[C@H]1O[C@@H](n2cnc3c(NC4CCCC4)nc(Cl)nc32)[C@H](O)[C@@H]1O [Compound 235b, 2-chloro-N^6-cyclopentyladenosine] | ED50 ([3]; Mus musculus, ip, read-out: 6 Hz model ED50): 0.12 mg/kg; 6 Hz model ED50 [3]: 0.12^c mg/kg; MES model, number of animals protected from convulsions (MES seizures in mice): 1 out of 4 at; scMET model, number of animals protected from convulsions [4]: 1 out of 4; Behavioral toxicity TD50 (mice): 0.84 mg/kg and 0.84^c mg/kg
82.6 ± 15.8 nM | 2450 ± 90 nM | 315 ± 48 nM | – | (1R,2R,3S,4R,5S)-4-(2-Chloro-6-(endo-norbornyl)-9H-purin-9-yl)bicyclo[3.1.0]hexane-2,3-diol [Compound 113] | % Inhibition, cyclic AMP A1 (hA1AR [2]): 62.1 ± 18.5%
200 ± 30 nM | 4080 ± 170 nM | 236 ± 43 nM | – | (1R,2R,3S,4R,5S)-4-(2-Chloro-6-(exo-norbornyl)-9H-purin-9-yl)bicyclo[3.1.0]hexane-2,3-diol [Compound 114] | % Inhibition, cyclic AMP A1 (hA1AR [2]): 27.8 ± 6.2%

Compound | Ki (hA1AR [1]) | Ki (hA2AAR) | Ki (hA3AR) | inhibition at 10 µM (hA1AR [2]) | other results
CC[C@H](Nc1nc(Cl)nc2c1ncn2[C@H]1[C@H](O)[C@H](O)[C@@H]2C[C@@H]21)C1CC1 [Compound 213, (1R,2R,3S,4R,5S)-4-(2-Chloro-6-((S)-1-cyclopropylpropylamino)-9H-purin-9-yl)bicyclo[3.1.0]hexane-2,3-diol] | 150 ± 10 nM | 4910 ± 430 nM | 780 ± 70 nM | 57.9 ± 1.1% | –
O[C@@H]1[C@H](O)[C@@H]2C[C@@H]2[C@H]1n1cnc2c(N[C@@H](C3CCC3)C3CC3)nc(Cl)nc21 [Compound 216, (1R,2R,3S,4R,5S)-4-(2-Chloro-6-((R)-cyclopropylcyclobutylmethylamino)-9H-purin-9-yl)bicyclo[3.1.0]hexane-2,3-diol] | 270 ± 60 nM | 5470 ± 300 nM | 2930 ± 480 nM | – | % Inhibition, cyclic AMP A1 (hA1AR [2]): 33.4 ± 5.2%
O[C@@H]1[C@H](O)[C@@H]2C[C@@H]2[C@H]1n1cnc2c(N[C@H](C3CCC3)C3CC3)nc(Cl)nc21 [Compound 217, (1R,2R,3S,4R,5S)-4-(2-Chloro-6-((S)-cyclopropylcyclobutylmethylamino)-9H-purin-9-yl)bicyclo[3.1.0]hexane-2,3-diol] | 120 ± 40 nM | 6450 ± 720 nM | 2790 ± 720 nM | – | % Inhibition, cyclic AMP A1 (hA1AR [2]): 18.1 ± 6.8%
